Results from patent publication US12441722B2, “Therapeutic agents and methods of treatment” (University of Florida Research Foundation, Incorporated, priority 2020, dated 2025).

Tested on: MOLT-4
Assay: Cell viability assay (tetrazolium-based MTS) in MOLT4 cells
Details: Homo sapiens, MOLT-4, MOLT4 acute lymphoblastic leukemia cells, 48 h incubation
Experimental: Cancer cells from acute lymphoblastic leukemia (MOLT4) were incubated with increasing concentrations of compounds of Examples 1-9 for 48 h. Cell viability was measured by tetrazolium-based MTS assay. 5×10^4 to 1×10^5 suspension cells or 3×10^3 to 5×10^3 adherent cells were seeded and treated in 96-well plates for 48 h. The EC50 values of individual agents were calculated with GraphPad Prism.

Row | EC50 [nM] | Compound
1 | 100 to 1000 | Cc1ncsc1-c1ccc([C@H](CC(=O)NCCCNC(=O)c2nc(N3CCc4cccc(C(=O)Nc5nc6ccccc6s5)c4C3)ccc2-c2cnn(CC34CC5CC(CC(C5)C3)C4)c2C)NC(=O)[C@@H]2C[C@@H](O)CN2C(=O)[C@@H](NC(=O)C2(C#N)CC2)C(C)(C)C)cc1 [degrader #21, 2-(5-(1-(adamantan-1-ylmethyl)-5-methyl-1H-pyrazol-4-yl)-6-((3-((S)-3-((2S,4R)-1-((S)-2-(1-cyanocyclopropane-1-carboxamido)-3,3-dimethylbutanoyl)-4-hydroxypyrrolidine-2-carboxamido)-3-(4-(4-methylthiazol-5-yl)phenyl)propanamido)propyl)carbamoyl)pyridin-2-yl)-N-(benzo[d]thiazol-2-yl)-1,2,3,4-tetrahydroisoquinoline-8-carboxamide]
2 | < 10 | Cc1ncsc1-c1ccc([C@H](C)NC(=O)[C@@H]2C[C@@H](O)CN2C(=O)[C@@H](NC(=O)CCCCCCCS(=O)(=O)NC(=O)c2nc(N3CCc4cccc(C(=O)Nc5nc6ccccc6s5)c4C3)ccc2-c2cnn(CC34CC5CC(CC(C5)C3)C4)c2C)C(C)(C)C)cc1 [degrader #13, 2-(5-(1-(adamantan-1-ylmethyl)-5-methyl-1H-pyrazol-4-yl)-6-(((8-(((S)-1-((2S,4R)-4-hydroxy-2-(((S)-1-(4-(4-methylthiazol-5-yl)phenyl)ethyl)carbamoyl)pyrrolidin-1-yl)-3,3-dimethyl-1-oxobutan-2-yl)amino)-8-oxooctyl)sulfonyl)carbamoyl)pyridin-2-yl)-N-(benzo[d]thiazol-2-yl)-1,2,3,4-tetrahydroisoquinoline-8-carboxamide]
3 | 10 to 100 | Cc1c(-c2ccc(N3CCc4cccc(C(=O)Nc5nc6ccccc6s5)c4C3)nc2C(=O)NCCOCCOCCNc2cccc3c2C(=O)N(C2CCC(=O)NC2=O)C3=O)cnn1CC12CC3CC(CC(C3)C1)C2 (stereo not drawn) [degrader #7, 2-(5-(1-(adamantan-1-ylmethyl)-5-methyl-1H-pyrazol-4-yl)-6-((2-(2-(2-((2-(2,6-dioxopiperidin-3-yl)-1,3-dioxoisoindolin-4-yl)amino)ethoxy)ethoxy)ethyl)carbamoyl)pyridin-2-yl)-N-(benzo[d]thiazol-2-yl)-1,2,3,4-tetrahydroisoquinoline-8-carboxamide]
4 | < 10 | Cc1ncsc1-c1ccc([C@H](C)NC(=O)[C@@H]2C[C@@H](O)CN2C(=O)[C@@H](NC(=O)CCCS(=O)(=O)NC(=O)c2nc(N3CCc4cccc(C(=O)Nc5nc6ccccc6s5)c4C3)ccc2-c2cnn(CC34CC5CC(CC(C5)C3)C4)c2C)C(C)(C)C)cc1 [degrader #9, 2-(5-(1-(adamantan-1-ylmethyl)-5-methyl-1H-pyrazol-4-yl)-6-(((4-(((S)-1-((2S,4R)-4-hydroxy-2-(((S)-1-(4-(4-methylthiazol-5-yl)phenyl)ethyl)carbamoyl)pyrrolidin-1-yl)-3,3-dimethyl-1-oxobutan-2-yl)amino)-4-oxobutyl)sulfonyl)carbamoyl)pyridin-2-yl)-N-(benzo[d]thiazol-2-yl)-1,2,3,4-tetrahydroisoquinoline-8-carboxamide]
5 | 100 to 1000 | Cc1c(-c2ccc(N3CCc4cccc(C(=O)Nc5nc6ccccc6s5)c4C3)nc2C(=O)NCCCCNc2cccc3c2C(=O)N(C2CCC(=O)NC2=O)C3=O)cnn1CC12CC3CC(CC(C3)C1)C2 (stereo not drawn) [degrader #3, 2-(5-(1-(adamantan-1-ylmethyl)-5-methyl-1H-pyrazol-4-yl)-6-((4-((2-(2,6-dioxopiperidin-3-yl)-1,3-dioxoisoindolin-4-yl)amino)butyl)carbamoyl)pyridin-2-yl)-N-(benzo[d]thiazol-2-yl)-1,2,3,4-tetrahydroisoquinoline-8-carboxamide]
6 | 100 to 1000 | Cc1c(-c2ccc(N3CCc4cccc(C(=O)Nc5nc6ccccc6s5)c4C3)nc2C(=O)NCCCCCCNc2cccc3c2C(=O)N(C2CCC(=O)NC2=O)C3=O)cnn1CC12CC3CC(CC(C3)C1)C2 (stereo not drawn) [degrader #4, 2-(5-(1-(adamantan-1-ylmethyl)-5-methyl-1H-pyrazol-4-yl)-6-((6-((2-(2,6-dioxopiperidin-3-yl)-1,3-dioxoisoindolin-4-yl)amino)hexyl)carbamoyl)pyridin-2-yl)-N-(benzo[d]thiazol-2-yl)-1,2,3,4-tetrahydroisoquinoline-8-carboxamide]
7 | < 10 | Cc1c(-c2ccc(N3CCc4cccc(C(=O)Nc5nc6ccccc6s5)c4C3)nc2C(=O)O)cnn1CC12CC3CC(CC(C3)C1)C2 [A1331852, reference compound]
8 | 10 to 100 | Cc1ncsc1-c1ccc([C@H](C)NC(=O)[C@@H]2C[C@@H](O)CN2C(=O)[C@@H](NC(=O)CCCCCCCS(=O)(=O)NC(=O)c2nc(N3CCc4cccc(C(=O)Nc5nc6ccccc6s5)c4C3)ccc2-c2cc(C#N)n(CC34CC5CC(CC(C5)C3)C4)c2C)C(C)(C)C)cc1 [degrader #18, 2-(5-(1-(adamantan-1-ylmethyl)-5-cyano-2-methyl-1H-pyrrol-3-yl)-6-(((8-(((S)-1-((2S,4R)-4-hydroxy-2-(((S)-1-(4-(4-methylthiazol-5-yl)phenyl)ethyl)carbamoyl)pyrrolidin-1-yl)-3,3-dimethyl-1-oxobutan-2-yl)amino)-8-oxooctyl)sulfonyl)carbamoyl)pyridin-2-yl)-N-(benzo[d]thiazol-2-yl)-1,2,3,4-tetrahydroisoquinoline-8-carboxamide]

Same assay, conditions: MOLT4 acute lymphoblastic leukemia cells, 48 h incubation

Row | EC50 [nM] | Compound
9 | > 1000 | Cc1ncsc1-c1ccc([C@H](C)NC(=O)[C@@H]2C[C@@H](O)CN2C(=O)[C@@H](NC(=O)CCCCNC(=O)C23CC4CC(CC(Cn5ncc(-c6ccc(N7CCc8cccc(C(=O)Nc9nc%10ccccc%10s9)c8C7)nc6C(=O)O)c5C)(C4)C2)C3)C(C)(C)C)cc1 [degrader #42, 6-(8-(benzo[d]thiazol-2-ylcarbamoyl)-3,4-dihydroisoquinolin-2(1H)-yl)-3-(1-(((1S,3r)-3-((5-(((S)-1-((2S,4R)-4-hydroxy-2-(((S)-1-(4-(4-methylthiazol-5-yl)phenyl)ethyl)carbamoyl)pyrrolidin-1-yl)-3,3-dimethyl-1-oxobutan-2-yl)amino)-5-oxopentyl)carbamoyl)adamantan-1-yl)methyl)-5-methyl-1H-pyrazol-4-yl)picolinic acid]
10 | < 10 | Cc1c(-c2ccc(N3CCc4cccc(C(=O)Nc5nc6ccccc6s5)c4C3)nc2C(=O)NCCOCCOCCOCCCc2cccc3c2C(=O)N(C2CCC(=O)NC2=O)C3=O)cnn1CC12CC3CC(CC(C3)C1)C2 (stereo not drawn) [degrader #30, 2-(5-(1-(adamantan-1-ylmethyl)-5-methyl-1H-pyrazol-4-yl)-6-((2-(2-(2-(3-(2-(2,6-dioxopiperidin-3-yl)-1,3-dioxoisoindolin-4-yl)propoxy)ethoxy)ethoxy)ethyl)carbamoyl)pyridin-2-yl)-N-(benzo[d]thiazol-2-yl)-1,2,3,4-tetrahydroisociuinoline-8-carboxamide]
11 | < 10 | Cc1c(-c2ccc(N3CCc4cccc(C(=O)Nc5nc6ccccc6s5)c4C3)nc2C(=O)NCCOCCOCCOCCCc2ccc3c(c2)C(=O)N(C2CCC(=O)NC2=O)C3=O)cnn1CC12CC3CC(CC(C3)C1)C2 (stereo not drawn) [degrader #31, 2-(5-(1-(adamantan-1-ylmethyl)-5-methyl-1H-pyrazol-4-yl)-6-((2-(2-(2-(3-(2-(2,6-dioxopiperidin-3-yl)-1,3-dioxoisoindolin-5-yl)propoxy)ethoxy)ethoxy)ethyl)carbamoyl)pyridin-2-yl)-N-(benzo[d]thiazol-2-yl)-1,2,3,4-tetrahydroisociuinoline-8-carboxamide]
12 | > 1000 | Cc1ncsc1-c1ccc([C@H](C)NC(=O)[C@@H]2C[C@@H](O)CN2C(=O)[C@@H](NC(=O)CCNC(=O)C23CC4CC(CC(Cn5ncc(-c6ccc(N7CCc8cccc(C(=O)Nc9nc%10ccccc%10s9)c8C7)nc6C(=O)O)c5C)(C4)C2)C3)C(C)(C)C)cc1 [degrader #41, 6-(8-(benzo[d]thiazol-2-ylcarbamoyl)-3,4-dihydroisoquinolin-2(1H)-yl)-3-(1-(((1S,3r)-3-((3-(((S)-1-((2S,4R)-4-hydroxy-2-(((S)-1-(4-(4-methylthiazol-5-yl)phenyl)ethyl)carbamoyl)pyrrolidin-1-yl)-3,3-dimethyl-1-oxobutan-2-yl)amino)-3-oxopropyl)carbamoyl)adamantan-1-yl)methyl)-5-methyl-1H-pyrazol-4-yl)picolinic acid]
13 | 10 to 100 | Cc1c(-c2ccc(N3CCc4cccc(C(=O)Nc5nc6ccccc6s5)c4C3)nc2C(=O)O)cnn1CC12CC3CC(C1)CC(C(=O)NCCCCCCNc1cccc4c1C(=O)N(C1CCC(=O)NC1=O)C4=O)(C3)C2 (stereo not drawn) [degrader #35, 6-(8-(benzo[d]thiazol-2-ylcarbamoyl)-3,4-dihydroisoquinolin-2(1H)-yl)-3-(1-(((1r,3r)-3-((6-((2-(2,6-dioxopiperidin-3-yl)-1,3-dioxoisoindolin-4-yl)amino)hexyl)carbamoyl)adamantan-1-yl)methyl)-5-methyl-1H-pyrazol-4-yl)picolinic acid]
14 | 10 to 100 | Cc1c(-c2ccc(N3CCc4cccc(C(=O)Nc5nc6ccccc6s5)c4C3)nc2C(=O)NCCOCCOCCOCC#Cc2ccc3c(c2)C(=O)N(C2CCC(=O)NC2=O)C3=O)cnn1CC12CC3CC(CC(C3)C1)C2 (stereo not drawn) [degrader #27, 2-(5-(1-(adamantan-1-ylmethyl)-5-methyl-1H-pyrazol-4-yl)-6-((2-(2-(2-((3-(2-(2,6-dioxopiperidin-3-yl)-1,3-dioxoisoindolin-5-yl)prop-2-yn-1-yl)oxy)ethoxy)ethoxy)ethyl)carbamoyl)pyridin-2-yl)-N-(benzo[d]thiazol-2-yl)-1,2,3,4-tetrahydroisocuinoline-8-carboxamnide]
15 | 10 to 100 | Cc1c(-c2ccc(N3CCc4cccc(C(=O)Nc5nc6ccccc6s5)c4C3)nc2C(=O)O)cnn1CC12CC3CC(C1)CC(C(=O)NCCCCCCCCCCCCNc1cccc4c1C(=O)N(C1CCC(=O)NC1=O)C4=O)(C3)C2 (stereo not drawn) [degrader #38, 6-(8-(benzo[d]thiazol-2-ylcarbamoyl)-3,4-dihydroisoquinolin-2(1H)-yl)-3-(1-(((1r,3r)-3-((12-((2-(2,6-dioxopiperidin-3-yl)-1,3-dioxoisoindolin-4-yl)amino)dodecyl)carbamoyl)adamantan-1-yl)methyl)-5-methyl-1H-pyrazol-4-yl)picolinic acid]
